This experiment deals with T1, human NAPE-PLD (Homo sapiens, UniProt Q6IQ20).
T1 construct: Full length human cDNA NAPE-PLD was obtained from Natsuo Ueda; made in house; host or cells: HEK293T cells, transient transfection (pcDNA3.1); membrane fraction used
T1 sequence (Q6IQ20 whole entry): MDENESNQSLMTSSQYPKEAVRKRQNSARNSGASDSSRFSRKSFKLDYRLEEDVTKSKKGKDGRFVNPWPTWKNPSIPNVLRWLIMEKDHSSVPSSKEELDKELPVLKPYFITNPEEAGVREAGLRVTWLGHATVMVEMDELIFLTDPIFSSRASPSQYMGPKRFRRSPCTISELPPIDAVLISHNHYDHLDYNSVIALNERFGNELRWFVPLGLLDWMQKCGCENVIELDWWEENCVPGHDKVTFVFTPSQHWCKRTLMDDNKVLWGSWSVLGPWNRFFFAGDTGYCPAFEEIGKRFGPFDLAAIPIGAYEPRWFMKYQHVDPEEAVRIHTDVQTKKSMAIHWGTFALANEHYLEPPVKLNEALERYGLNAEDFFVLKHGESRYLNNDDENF
Kind of experiment: In vitro NAPE-PLD activity assay. It is filed as biochemical. The note with it: membrane protein fraction of HEK293T cells overexpressing human NAPE-PLD; substrate PED6 1 µM; 30 minutes preincubation at 37 °C. As for the experimental part:
Full length human cDNA NAPE-PLD was obtained from Natsuo Ueda^1 and cloned into mammalian expression vector pcDNA3.1, containing a C-terminal Flag-tag and genes for ampicillin and neomycin resistance. All plasmids were grown in XL-10 Z-competent cells and prepped (Maxi Prep, Qiagen). Sequence analysis for the confirmation of the sequences was performed at the Leiden Genome Technology Centre.
HEK293T were cultured at 37 °C and 7% CO2 in DMEM (Sigma Aldrich, D6546) with glutamax, penicillin (100 µg/ml), streptomycin (100 µg/ml) and 10% New Born Calf Serum iron supplemented (Hyclone SH30072.03). Cells were passaged twice a week to appropriate confluence.
24 hours before transfection 10^7 cells are seeded on a 15 cm dish. Two hours before transfection medium is refreshed, low volume. Transfection is performed with PEI in a ratio of 3:1 with human NAPE-PLD or Mock pcDNA3.1 Neo, 20 µg per dish. Medium is refreshed after 24 hours and cells are harvested after 72 hours.
Cell pellets are re-suspended in lysis buffer: 20 mM Hepes, 2 mM DTT, 0.25 M sucrose, 1 mM MgCl2, 2.5 U/ml benzonase and incubated 30 minutes on ice. The cytosolic fraction (supernatant) is separated from the membranes by ultra-centrifugation (32000 rpm for 30 minutes 100,000g). The pellet is resuspended in storage buffer: 20 mM Hepes, 2 mM DTT (membrane fraction). All samples are stored at -80°C. Enzyme concentrations are determined using a Bradford assay.
The NAPE-PLD activity assay is based on a previously reported method with small alterations.^2 The membrane protein fraction from transient overexpression of human NAPE-PLD in HEK293T cells was diluted to 0.4 mg/ml in assay buffer: 50 mM Tris-HCl (pH 7.5), 0.02% Triton X-100, 150 mM NaCl. The substrate PED6 (Invitrogen) 1 mM stock was consecutively diluted in DMSO (10x) and in assay buffer (10x) to make a 10 µM working solution. […] The assay is performed in a dark Greiner 96 wells plate, end volume 100 µl. The compound or DMSO is incubated with membrane protein lysate (final concentration 0.04 mg/ml) for 30 minutes at 37 °C. […] Mock lysate with DMSO is used for background substraction. IC50 curves are generated used Graphpad Prism v6.
`CN(CCc1ccccc1)c1nc(C(=O)NCC2CC2)cc(N2CCC(O)C2)n1` (centres unmarked) [Example 32, N-(cyclopropylmethyl)-6-(3-hydroxypyrrolidin-1-yl)-2-(methyl(phenethyl)amino)pyrimidine-4-carboxamide] showed an IC50 of 224 nM. `CN(CCc1ccccc1)c1nc(C(=O)NCC2CC2)cc(N2CCC(N(C)C)C2)n1` (centres unmarked) [Example 33, N-(cyclopropylmethyl)-6-(3-(dimethylamino)pyrrolidin-1-yl)-2-(methyl(phenethyl)amino)pyrimidine-4-carboxamide]: the IC50 was 9550 nM. This IC50 lies about 43-fold higher than the previous one. To `COC1CCN(c2cc(C(=O)NCC3CC3)nc(N(C)CCc3ccccc3)n2)C1` (centres unmarked) [Example 34, N-(cyclopropylmethyl)-6-(3-methoxypyrrolidin-1-yl)-2-(methyl(phenethyl)amino)pyrimidine-4-carboxamide] belongs 708 nM; to `O=C(NCC1CC1)c1cc(N2CCOCC2)nc(N2CCN(Cc3ccccc3)C(c3ccccc3)C2)n1` (centres unmarked) [Example 35, 2-(4-benzyl-3-phenylpiperazin-1-yl)-N-(cyclopropylmethyl)-6-morpholinopyrimidine-4-carboxamide], 1000 nM; to `CN(CCc1ccccc1)c1nc(C(=O)NCCO)cc(N2CCOCC2)n1` [Example 36, N-(2-hydroxyethyl)-2-(methyl(phenethyl)amino)-6-morpholinopyrimidine-4-carboxamide], 5010 nM.

`O=C(NCC1CC1)c1cc(N2CCOCC2)nc(N2CCOC(c3ccccc3)C2)n1` (centres unmarked) [Example 37, N-(cyclopropylmethyl)-6-morpholino-2-(2-phenylmorpholino)pyrimidine-4-carboxamide] had an IC50 of 1230 nM. Against the preceding molecule, the IC50 is about 4.1-fold lower. As for `CN(CCc1ccccc1)c1nc(C(=O)NCC2CC2)cc(N2CC[C@@H](O)C2)n1` [Example 38, (R)-N-(cyclopropylmethyl)-6-(3-hydroxypyrrolidin-1-yl)-2-(methyl(phenethyl)amino)pyrimidine-4-carboxamide], half-maximal inhibition (IC50) required 302 nM. Regarding `CN(CCc1ccccc1)c1nc(C(=O)NCC2CC2)cc(N2CC[C@H](O)C2)n1` [Example 39, (S)-N-(cyclopropylmethyl)-6-(3-hydroxypyrrolidin-1-yl)-2-(methyl(phenethyl)amino)pyrimidine-4-carboxamide], the IC50 is 234 nM.

Consider `O=C(NCC1CC1)c1cc(N2CC[C@H](O)C2)nc(N2CCC[C@@H](c3ccccc3)C2)n1` [Example 40, N-(cyclopropylmethyl)-6-((S)-3-hydroxypyrrolidin-1-yl)-2-((S)-3-phenylpiperidin-1-yl)pyrimidine-4-carboxamide], for which it took 72.4 nM to reach half-maximal inhibition (IC50). This IC50 is about 3.2-fold lower than that of the molecule before.

As to `O=C(NCC1CC1)c1cc(N2CC[C@H](O)C2)nc(N2CCC[C@H](c3ccccc3)C2)n1` [Example 41, N-(cyclopropylmethyl)-6-((S)-3-hydroxypyrrolidin-1-yl)-2-((R)-3-phenylpiperidin-1-yl)pyrimidine-4-carboxamide], the IC50 is 251 nM.

For `O=C(NCC1CC1)c1cc(N2CC[C@@H](O)C2)nc(N2CCC[C@H](c3ccccc3)C2)n1` [Example 42, N-(cyclopropylmethyl)-6-((R)-3-hydroxypyrrolidin-1-yl)-2-((R)-3-phenylpiperidin-1-yl)pyrimidine-4-carboxamide], the IC50 is 324 nM. `O=C(NCC1CC1)c1cc(N2CC[C@@H](O)C2)nc(N2CCC[C@@H](c3ccccc3)C2)n1` [Example 43, N-(cyclopropylmethyl)-6-((R)-3-hydroxypyrrolidin-1-yl)-2-((S)-3-phenylpiperidin-1-yl)pyrimidine-4-carboxamide] showed a half-maximal inhibitory concentration (IC50) of 110 nM. Molecule `C#CCNC(=O)c1cc(N2CC[C@H](O)C2)nc(N2CCN(Cc3ccc(C4(C(F)(F)F)N=N4)cc3)CC2)n1` [Example 44, (S)-6-(3-hydroxypyrrolidin-1-yl)-N-(prop-2-yn-1-yl)-2-(4-(4-(3-(trifluoromethyl)-3H-diazirin-3-yl)benzyl)piperazin-1-yl)pyrimidine-4-carboxamide] had an IC50 of 479 nM. This IC50 is about 4.4-fold higher than that of the molecule before.

Regarding `C#CCNC(=O)c1cc(N2CC[C@H](O)C2)nc(N2CCN(C(=O)c3ccc(C4(C(F)(F)F)N=N4)cc3)CC2)n1` [Example 45, (S)-6-(3-hydroxypyrrolidin-1-yl)-N-(prop-2-yn-1-yl)-2-(4-(4-(3-(trifluoromethyl)-3H-diazirin-3-yl)benzoyl)piperazin-1-yl)pyrimidine-4-carboxamide], the IC50 is 617 nM. The IC50 values of the last two molecules are within 1.5-fold of each other. `O=C(NCC1CC1)c1cc(N2CCOCC2)nc(N2CCC[C@@H](c3ccccc3)C2)n1` [Example 46, (S)-N-(cyclopropylmethyl)-6-morpholino-2-(3-phenylpiperidin-1-yl)pyrimidine-4-carboxamide] showed an IC50 of 209 nM. Against the preceding molecule, the IC50 is about 3-fold lower. With `O=C(NCC1CC1)c1cc(N2CCOCC2)nc(NCCc2ccccc2)n1` [Example 47, N-(cyclopropylmethyl)-6-morpholino-2-(phenethylamino)pyrimidine-4-carboxamide], the IC50 was 2750 nM. This IC50 is about 13-fold higher than that of the molecule before. `CN(Cc1ccccc1)c1nc(C(=O)NCC2CC2)cc(N2CCOCC2)n1` [Example 48, 2-(benzyl(methyl)amino)-N-(cyclopropylmethyl)-6-morpholinopyrimidine-4-carboxamide] showed an IC50 of 9120 nM. As for `CN(CCc1ccccc1)c1nc(C(=O)NCC2CC2)cc(N2CCOCC2)n1` [Example 49, N-(cyclopropylmethyl)-2-(methyl(phenethyl)amino)-6-morpholinopyrimidine-4-carboxamide], 708 nM corresponded to half-maximal inhibition (IC50).

In turn, `CC(C)N(CCc1ccccc1)c1nc(C(=O)NCC2CC2)cc(N2CCOCC2)n1` [Example 50, N-(cyclopropylmethyl)-2-(isopropyl(phenethyl)amino)-6-morpholinopyrimidine-4-carboxamide] had a 50% inhibitory concentration (IC50) of 282 nM. The figure for `O=C(NCC1CC1)c1cc(N2CCOCC2)nc(N2CCC(c3ccccc3)C2)n1` (centres unmarked) [Example 51, N-(cyclopropylmethyl)-6-morphol ino-2-(3-phenylpyrrolidin-1-yl)pyrimidine-4-carboxamide] is 2190 nM; for `O=C(NCC1CC1)c1cc(N2CCOCC2)nc(N2CCCC(c3ccccc3)C2)n1` (centres unmarked) [Example 52, N-(cyclopropylmethyl)-6-morphol ino-2-(3-phenylpiperidin-1-yl)pyrimidine-4-carboxamide] it is 380 nM.

The molecule `CN(CCc1ccc(Oc2ccccc2)cc1)c1nc(C(=O)NCC2CC2)cc(N2CCOCC2)n1` [Example 53, N-(cyclopropylmethyl)-2-(methyl(4-phenoxyphenethyl)amino)-6-morpholinopyrimidine-4-carboxamide] showed an IC50 of 3020 nM. Compared with the last molecule, the IC50 is about 7.9-fold higher. In the case of `O=C(NCC1CC1)c1cc(N2CCOCC2)nc(N2CCCCC2Cc2ccccc2)n1` (centres unmarked) [Example 54, 2-(2-benzylpiperidin-1-yl)-N-(cyclopropylmethyl)-6-morpholinopyrimidine-4-carboxamide], the IC50 is 741 nM. This IC50 lies about 4.1-fold lower than the previous one.

For the molecule `CN(CCc1ccccc1)c1cc(C(=O)NCC2CC2)nc(N2CCOCC2)n1` [Example 55, N-(cyclopropylmethyl)-6-(methyl(phenethyl)amino)-2-morpholinopyrimidine-4-carboxamide], half-maximal inhibition (IC50) was put at 4070 nM. `CN(CCc1ccc(C(F)(F)F)cc1)c1nc(C(=O)NCC2CC2)cc(N2CCOCC2)n1` [Example 56, N-(cyclopropylmethyl)-2-(methyl(4-(trifluoromethyl)phenethyl)amino)-6-morpholino-pyrimidine-4-carboxamide] gave an IC50 of 6170 nM.

For `CN(CCc1ccc(Cl)cc1)c1nc(C(=O)NCC2CC2)cc(N2CCOCC2)n1` [Example 57, 2-((4-chlorophenethyl)(methyl)amino)-N-(cyclopropylmethyl)-6-morphol inopyrimidine-4-carboxamide], the half-maximal inhibitory concentration (IC50) is 6310 nM. For `CN(CCCc1ccccc1)c1nc(C(=O)NCC2CC2)cc(N2CCOCC2)n1` [Example 58, N-(cyclopropylmethyl)-2-(methyl(3-phenylpropyl)amino)-6-morpholinopyrimidine-4-carboxamide], 3160 nM corresponded to half-maximal inhibition (IC50). `O=C(NCC1CC1)c1cc(N2CCOCC2)nc(N2CCCC2Cc2ccccc2)n1` (centres unmarked) [Example 59, 2-(2-benzylpyrrolidin-1-yl)-N-(cyclopropylmethyl)-6-morpholinopyrimidine-4-carboxamide]: the IC50 is 380 nM. The figure for `CN(CCCCc1ccccc1)c1nc(C(=O)NCC2CC2)cc(N2CCOCC2)n1` [Example 60, N-(cyclopropylmethyl)-2-(methyl(4-phenylbutyl)amino)-6-morpholinopyrimidine-4-carboxamide] is 10000 nM.

One may read the IC50 as the midpoint of a concentration-inhibition curve.

The record behind these values is patent EP3575287A1, “INHIBITORS OF N-ACYLPHOSPHATIDYLETHANOLAMINE PHOSPHOLIPASE D (NAPE-PLD)” (Universiteit Leiden, priority 2018, dated 2019).
